According to article PMC10502144, “Anti-methicillin-resistant Staphylococcus aureus activity and safety evaluation of 14-O-[(5-ethoxycarbonyl-4,6-dimethylpyrimidine-2-yl) thioacetyl] mutilin (EDT)” (Scientific Reports, 2023):
Structures can show the parent of a compound that is named as a salt. Where two headings read alike, the source gives them in different places.

Assays:
[1] = tested on: Salmonella Typhimurium TA1535
Experimental: (§1) Before the test, Salmonella Typhimurium (S. Typhimurium) TA97a, TA98, TA100, TA102, TA1535 and Escherichia coli WP2uvrA pKM101 (pKM101) were first checked for their genetic integrity, including biotin dependence, rfa marker (crystal violet), biotin, histidine dependence and presence of the plasmid pKM101 (ampicillin resistance) or pAQ1 (tetracycline resistance). […] The maximum concentration of EDT was also screened using a preliminary experiment.
(§2) DMSO (0.1 mL) was directly incorporated into 1.9 mL melted top agar as the vehicle control. […] Each strain (0.1 mL, 6–7 log10 CFU/mL) was added into 2 mL of top agar in which comprised 0.5 mL S9 (10%), serial concentrations of EDT (2000, 400, 80, 16 and 3.2 μg/plate), DMSO or control chemicals for testing with the S9. For testing without S9, 0.5 mL phosphate buffer saline (PBS, pH 7.4) replaced the S9 mix. Then, the obtained top agar was melted, poured onto the surface of […] and swirled to distribute the top agar to all surfaces of medium, followed by incubation at 37 °C for 48 h. The resultant colonies were counted manually as the number of revertant colonies per plate. The experiments were performed in triplicate and the results were expressed as the average ± SD.

MRSA-337371 = assay: Post-antibiotic effect (PAE) test, viable counting; type: cell-based, methicillin-resistant Staphylococcus aureus; settings: 1 h exposure; for PAE values, concentration dependence: 1×, 2×, 4× and 8× MIC
Experimental: The PAE of EDT against MRSA-337371 was determined using a standard viable counting method. We selected 1 × , 2 × , 4 × and 8 × MICs of EDT and tiamulin (0.0313 and 0.5 μg/mL, respectively), to conduct PAE test on MRSA strains. The strains (1 × 10^5 CFU/mL) were placed in MHB broth test tubes containing the above four concentrations of EDT and tiamulin, respectively, and cultured in a shaking bed at 37 °C for 1 h, followed by centrifuging for 10 min at 4000 r/min. The supernatants were discarded and the precipitations were dissolved with 2 mL normal saline to centrifuge. The same procedure was repeated three times. The final bacterial precipitates were taken and cultured in MHB broth with the initial concentration of 5.5 Log CFU/mL at 37 °C in a shaking bed. Samples were then taken at 0, 1, 2, 3, 4, 5, 6, 8, 12, 18 and 24 h to dilute 10–100,000 times and the 10 μL dilutions were evenly smear on MHA plate medium to culture at 37 °C for 48 h. Finally, the average numbers of colonies on the plates were obtained and the PAE values were calculated as hour using equation PAE = T − C, in which T was the time required for the increase of 1 log10 CFU/mL after the removal of drugs and C was the time required for the number of MRSA in the control tube to increase by 1 log10 CFU/mL. Experiments were performed in triplicate.

[2] = tested on: Salmonella Typhimurium TA100; assay: Ames test, TA100; type: cell-based
Experimental: as §1, §2

[3] = Microsomal stability assay, human; type: in vitro ADME; settings: human liver microsomes
Experimental: (§3) Mouse and human liver microsomes were thawed slowly on ice. A total of 5 mg/mL of microsomes, 2 μL of a 100 μM solution of EDT and 183 μL of 100 mM phosphate buffer were incubated 5 min at 37 °C in a water bath. Reactions were initiated using 10 μL of 20 mM NADPH. Samples were incubated in three replicates at 37 °C under gentle agitation at 150 rpm. At 0, 5, 15, 30, and 60 min, reactions were terminated by the addition of 180 μL of acetonitrile. After centrifugation (4000 rpm, 10 min), samples were then analyzed by liquid chromatography/tandem mass spectrometry (LC–MS/MS). Peak areas of the respective time point of the compound were normalized to the peak area at time point 0 min. Then half-life was calculated using linear regression from log percentage (t1/2 = − 0.693/k).

[4] = Microsomal stability assay, mouse; type: in vitro ADME; settings: mouse liver microsomes
Experimental: as §3

[5] = Cytotoxicity assay (CCK-8), HEK293T; type: cell-based; settings: human, HEK293T cells
Experimental: Cytotoxicity of EDT and tiamulin was studied against human hepatocellular carcinoma cells (HepG2) and human embryonic kidney 293T (HEK293T) cells following a protocol as published in our earlier reports[41],[42]. Cells were counted and inoculated into 96-well plates with approximately10^5 cells density for incubating 24 h at 37 °C. […] The same procedure was repeated three times. The percentages of cell viability were calculated by the formula: Cell viability (%) = [Asample ‒ Anegative]/[Apositve ‒ Anegative] × 100%.

[6] = tested on: Salmonella Typhimurium TA97a; assay: Ames test, TA97a
Experimental: as §1, §2

[7] = tested on: Escherichia coli WP2uvrA pKM101; assay: Ames test, pKM101
Experimental: as §1, §2

CYP3A4 = settings: cited from earlier work

## C=CC1(C)CC(OC(=O)CSc2nc(C)c(C(=O)OCC)c(C)n2)C2(C)C(C)CCC3(CCC(=O)C32)C(C)C1O (centres unmarked) [EDT, 14-O-[(5-ethoxycarbonyl-4,6-dimethylpyrimidine-2-yl)thioacetyl] mutilin]
[1]; TA1535, 3.2 μg/plate, +S9
  number of revertant colonies per plate: 21.00 ± 4.00
[1]; TA1535, 3.2 μg/plate, −S9
  number of revertant colonies per plate: 19.67 ± 1.33
[1]; TA1535, 16 μg/plate, +S9
  number of revertant colonies per plate: 27.00 ± 2.00
[1]; TA1535, 16 μg/plate, −S9
  number of revertant colonies per plate: 23.33 ± 1.67
[1]; TA1535, 80 μg/plate, +S9
  number of revertant colonies per plate: 25.00 ± 4.00
[1]; TA1535, 80 μg/plate, −S9
  number of revertant colonies per plate: 23.33 ± 2.67
[1]; TA1535, 400 μg/plate, +S9
  number of revertant colonies per plate: 26.00 ± 3.00
[1]; TA1535, 400 μg/plate, −S9
  number of revertant colonies per plate: 23.33 ± 2.67
[1]; TA1535, 2000 μg/plate, +S9
  number of revertant colonies per plate: 19.33 ± 3.67
[1]; TA1535, 2000 μg/plate, −S9
  number of revertant colonies per plate: 17.67 ± 2.33
MRSA-337371
  PAE values, concentration dependence: increased PAE values in a concentration-dependent manner
MRSA-337371; at four tested concentrations (1×, 2×, 4×, 8× MIC)
  PAE values compared with tiamulin: extremely significantly higher than that of tiamulin
[2]; TA100, 3.2 μg/plate, +S9
  number of revertant colonies per plate: 119.67 ± 7.33
[2]; TA100, 3.2 μg/plate, −S9
  number of revertant colonies per plate: 109.00 ± 8.00
[2]; TA100, 16 μg/plate, +S9
  number of revertant colonies per plate: 103.67 ± 9.33
[2]; TA100, 16 μg/plate, −S9
  number of revertant colonies per plate: 101.00 ± 9.00
[2]; TA100, 80 μg/plate, +S9
  number of revertant colonies per plate: 118.67 ± 14.33
[2]; TA100, 80 μg/plate, −S9
  number of revertant colonies per plate: 105.33 ± 13.67
[2]; TA100, 400 μg/plate, +S9
  number of revertant colonies per plate: 134.33 ± 12.67
[2]; TA100, 400 μg/plate, −S9
  number of revertant colonies per plate: 129.67 ± 15.33
[2]; TA100, 2000 μg/plate, +S9
  number of revertant colonies per plate: 137.00 ± 14.00
[2]; TA100, 2000 μg/plate, −S9
  number of revertant colonies per plate: 122.67 ± 11.33
[3]
  half-life at 1 μM: 43.6 min
  microsomal CLint at 1 μM: 31.8 µL/min/mg
[4]
  half-life at 1 μM: 30.1 min
  microsomal CLint at 1 μM: 46 µL/min/mg
[5]; 200 μM converted to μg/mL
  CC50 at 6 h: > 115 µg/mL
[5]; deduced from Fig. 5
  CC50 at 6 h: > 200000 nM
[6]; 3.2 μg/plate, +S9
  number of revertant colonies per plate: 57.67 ± 4.33
[6]; 3.2 μg/plate, −S9
  number of revertant colonies per plate: 52.00 ± 3.00
[6]; 16 μg/plate, +S9
  number of revertant colonies per plate: 46.00 ± 4.00
[6]; 16 μg/plate, −S9
  number of revertant colonies per plate: 44.33 ± 5.67
[6]; 80 μg/plate, +S9
  number of revertant colonies per plate: 50.33 ± 3.67
[6]; 80 μg/plate, −S9
  number of revertant colonies per plate: 53.33 ± 5.67
[6]; 400 μg/plate, +S9
  number of revertant colonies per plate: 54.33 ± 4.67
[6]; 400 μg/plate, −S9
  number of revertant colonies per plate: 56.00 ± 3.00
[6]; 2000 μg/plate, +S9
  number of revertant colonies per plate: 44.00 ± 5.00
[6]; 2000 μg/plate, −S9
  number of revertant colonies per plate: 52.00 ± 6.00
[7]; pKM101, 3.2 μg/plate, +S9
  number of revertant colonies per plate: 50.33 ± 2.67
[7]; pKM101, 3.2 μg/plate, −S9
  number of revertant colonies per plate: 42.00 ± 3.00
[7]; pKM101, 16 μg/plate, +S9
  number of revertant colonies per plate: 54.00 ± 4.00
[7]; pKM101, 16 μg/plate, −S9
  number of revertant colonies per plate: 46.00 ± 5.00
[7]; pKM101, 80 μg/plate, +S9
  number of revertant colonies per plate: 44.00 ± 4.00
[7]; pKM101, 80 μg/plate, −S9
  number of revertant colonies per plate: 41.33 ± 3.67
[7]; pKM101, 400 μg/plate, +S9
  number of revertant colonies per plate: 53.00 ± 5.00
[7]; pKM101, 400 μg/plate, −S9
  number of revertant colonies per plate: 51.33 ± 3.67
[7]; pKM101, 2000 μg/plate, +S9
  number of revertant colonies per plate: 50.33 ± 3.67
[7]; pKM101, 2000 μg/plate, −S9
  number of revertant colonies per plate: 47.00 ± 4.00

## C=C[C@]1(C)C[C@@H](OC(=O)CSCCN(CC)CC)[C@]2(C)[C@H](C)CC[C@]3(CCC(=O)[C@H]32)[C@@H](C)[C@@H]1O [tiamulin, Tiamulin fumarate, reference compound]
MRSA-337371
  PAE values, concentration dependence: increased PAE values in a concentration-dependent manner
CYP3A4
  IC50: 1600 nM
